# US6929685B2, “Alkylamine derivatives as antifouling agents” (Bayer Atiengesellschaft, priority 2001, dated 2005)
# Legend:
# Details in all cases: Dutch harbor, sea water
# [1] = system: slime; test: Raft panel static immersion test of antifouling paints: slime; parameters: key: G: Not present; Some light slime; F: Overall covered
# Description: (§1) The prepared paints have been evaluated on can stability, adhesion and film defects. The antifouling performance has been tested by application of the paints on raft panels. At first the steel panels had been protected with a standard anticorrosive system for marine environments (300 μm in dft). The to be tested antifouling paint had been applied in 2 layers with a total dry film thickness between 200 and 300 μm. Finally the panels were subjected to a static immersion test on rafts at sea harbors in Holland. The paints were inspected for the presence of fouling (% of area covered with fouling organisms) and of film defects every two months. The tested paint formulations are represented in Table 1.
# (§2) Further explanations to Table 1: • 1. Model coatings of type 1 (MC-1A/B/C) are for the evaluation of the algicidal properties of the claimed structures at three different representative weight-% next to 35% cuprous oxide. Good performing references are model coating MC-2 and MC-3 [35% cuprous oxide+3% Seanine (MC-2) or 35% cuprous oxide+3% Irgarol (MC-3)]. Base level references are “cuprous oxide only” formulations [cuprous oxide only (35% (MC4) and 50% level (MC-5)]. • 2. Model coatings of type 6 and 7 are for the evaluation of the activity of the claimed structures against “hard fouling” in combination with two different types of algicides: claimed structure (1/2/4%; MC-6-A/B/C)+3% Seanine or claimed structure (1/2/4%; MC-7-A/B/C)+3% Irgarol). Base level references are “algicide only” formulations with 3% Seanine (MC-8) or 3% Irgarol (MC-9).
# (§3) 3. Model coatings of type 10 (MC-10A/B) evaluate the total spectrum of biocidal activity by using the claimed structure as only biocide at 2 levels (4 and 8 w %). Good performing references are “cuprous oxide only” formulations [cuprous oxide 35% (MC-4) and 50% (MC-5)]. As blank serves model coating 11 (MC-1 1) containing no biocide at all.
# (§4) The claimed structures were tested at several levels of dosage with and without an algicide as co-biocide. The following formulations were used for comparison: formulations with cuprous oxide, formulations with cuprous oxide and commercial co-biocides, a blank and two formulations that only contained the co-biocide and finally a commercial tributyltin-releasing self polishing system.
# (§5) An even better protection can be obtained by combining claimed structures with co-biocides like the algicides that are commonly used for antifoulings.
# [2] = system: algae; test: Raft panel static immersion test of antifouling paints: algae; parameters: key: G: Not present; Some light slime; F: Overall covered
# Description: as §1, §2, §3, §4, §5
# [3] = system: hard fouling; test: Raft panel static immersion test of antifouling paints: hard fouling; parameters: key: G: Not present; Some light slime; F: Overall covered
# Description: as §1, §2, §3, §4, §5
# [4] = system: fouling organisms; test: Raft panel static immersion test of antifouling paints: overall; parameters: key: good (G); satisfactory (S); failure (F)
# Description: as §1, §2, §3, §4, §5
# [5] = model coating 1A: 35% Cu2O + 1% of compound
# [6] = model coating 1B: 35% Cu2O + 2% of compound
# [7] = model coating 1C: 35% Cu2O + 3% of compound
# [8] = model coating 6A: 1% of compound + 3% Seanine
# [9] = model coating 6B: 2% of compound + 3% Seanine
# [10] = model coating 6C: 4% of compound + 3% Seanine
# [11] = model coating 7A: 1% of compound + 3% Irgarol
# [12] = model coating 7B: 2% of compound + 3% Irgarol
# [13] = model coating 7C: 4% of compound + 3% Irgarol
# [14] = model coating 10A: 4% of compound as only biocide
# [15] = model coating 10B: 8% of compound as only biocide
structure (smiles),measurement,setting,value
"COC(=O)NCCCCCCBr [Compound 2, N-methoxycarbonyl-6-bromohexylamine]",Performance (1 yr immersed) Slime,[1]; [5],S
same,Performance (1 yr immersed) Slime,[1]; [6],S
same,Performance (1 yr immersed) Slime,[1]; [7],G
same,Performance (1 yr immersed) Slime,[1]; [8],S
same,Performance (1 yr immersed) Slime,[1]; [9],S
same,Performance (1 yr immersed) Slime,[1]; [10],G
same,Performance (1 yr immersed) Slime,[1]; [11],S
same,Performance (1 yr immersed) Slime,[1]; [12],S
same,Performance (1 yr immersed) Slime,[1]; [13],S
same,Performance (1 yr immersed) Slime,[1]; [14],F
same,Performance (1 yr immersed) Slime,[1]; [15],S
same,Performance (1 yr immersed) Algae,[2]; [6],G
same,Performance (1 yr immersed) Algae,[2]; [7],G
same,Performance (1 yr immersed) Algae,[2]; [8],G
same,Performance (1 yr immersed) Algae,[2]; [9],G
same,Performance (1 yr immersed) Algae,[2]; [10],G
same,Performance (1 yr immersed) Algae,[2]; [11],G
same,Performance (1 yr immersed) Algae,[2]; [12],G
same,Performance (1 yr immersed) Algae,[2]; [13],G
same,Performance (1 yr immersed) Hard fouling,[3]; [5],G
same,Performance (1 yr immersed) Hard fouling,[3]; [6],G
same,Performance (1 yr immersed) Hard fouling,[3]; [7],G
same,Performance (1 yr immersed) Hard fouling,[3]; [10],G
same,Performance (1 yr immersed) Hard fouling,[3]; [15],G
same,Performance (1 yr immersed) Overall,[4]; [5],S
same,Performance (1 yr immersed) Overall,[4]; [6],S
same,Performance (1 yr immersed) Overall,[4]; [7],G
same,Performance (1 yr immersed) Overall,[4]; [8],F
same,Performance (1 yr immersed) Overall,[4]; [9],S
same,Performance (1 yr immersed) Overall,[4]; [10],G
same,Performance (1 yr immersed) Overall,[4]; [11],F
same,Performance (1 yr immersed) Overall,[4]; [12],S
same,Performance (1 yr immersed) Overall,[4]; [13],S
same,Performance (1 yr immersed) Overall,[4]; [14],F
same,Performance (1 yr immersed) Overall,[4]; [15],S
"CCCCCCCCCCCNC=O [Compound 9, N-formyl-1-aminoundecane]",Performance (1 yr immersed) Slime,[1]; [5],S
same,Performance (1 yr immersed) Slime,[1]; [6],S
same,Performance (1 yr immersed) Slime,[1]; [7],G
same,Performance (1 yr immersed) Slime,[1]; [8],S
same,Performance (1 yr immersed) Slime,[1]; [9],S
same,Performance (1 yr immersed) Slime,[1]; [10],G
same,Performance (1 yr immersed) Slime,[1]; [11],S
same,Performance (1 yr immersed) Slime,[1]; [12],S
same,Performance (1 yr immersed) Slime,[1]; [13],S
same,Performance (1 yr immersed) Slime,[1]; [14],F
same,Performance (1 yr immersed) Slime,[1]; [15],S
same,Performance (1 yr immersed) Algae,[2]; [6],G
same,Performance (1 yr immersed) Algae,[2]; [7],G
same,Performance (1 yr immersed) Algae,[2]; [8],G
same,Performance (1 yr immersed) Algae,[2]; [9],G
same,Performance (1 yr immersed) Algae,[2]; [10],G
same,Performance (1 yr immersed) Algae,[2]; [11],G
same,Performance (1 yr immersed) Algae,[2]; [12],G
same,Performance (1 yr immersed) Algae,[2]; [13],G
same,Performance (1 yr immersed) Hard fouling,[3]; [5],G
same,Performance (1 yr immersed) Hard fouling,[3]; [6],G
same,Performance (1 yr immersed) Hard fouling,[3]; [7],G
same,Performance (1 yr immersed) Hard fouling,[3]; [10],G
same,Performance (1 yr immersed) Hard fouling,[3]; [15],G
same,Performance (1 yr immersed) Overall,[4]; [5],S
same,Performance (1 yr immersed) Overall,[4]; [6],S
same,Performance (1 yr immersed) Overall,[4]; [7],G
same,Performance (1 yr immersed) Overall,[4]; [8],F
same,Performance (1 yr immersed) Overall,[4]; [9],S
same,Performance (1 yr immersed) Overall,[4]; [10],G
same,Performance (1 yr immersed) Overall,[4]; [11],F
same,Performance (1 yr immersed) Overall,[4]; [12],S
same,Performance (1 yr immersed) Overall,[4]; [13],S
same,Performance (1 yr immersed) Overall,[4]; [14],F
same,Performance (1 yr immersed) Overall,[4]; [15],S
